Source: patent US7501113B2, “Aerosol formulations and aerosol delivery of buprenorphine” (priority 2003, dated 2009)
Several values for one entry are separate records, joined by “and”; a condition that tells them apart may be missing. Identical values can stand only once. Like-named read-outs stand apart in the source and are kept apart here.

Assays:
[1] = Emitted dose and fine particle fraction; assay type: physicochemical; details: formulation % w/v: buprenorphine 0.2, buspirone 2.0, cyclobenzaprine 2.0, triazolam 0.1, zolpidem 0.2; for Avg. Emitted Dose per Actuation: 10 second actuations, average of n=3-5 runs; for Avg. FPF: fine particle fraction = percent of total dose collected less than 5.6 microns, n=3-5 runs
[2] = Aerosol particle size determination, 10-stage MOUDI at 30 L/min with USP throat; assay type: physicochemical; details: for MMAD / Material Balance / Throat Deposition / Wall Losses / Throat Depositions: 5 mg/sec
Method: Aerosol particle size was determined using the 10-stage MOUDI operated at 30 L/min. The sample foils were placed in beakers, 10 mL of sample solvent was added, and the beakers swirled thoroughly. For the USP throat, 10 mL of sample solvent was added and shaken thoroughly. Wall losses were assessed by washing the MOUDI walls with a Kimwipe dipped in sample solvent. The same 10 mL of mobile phase was used to wash the walls of all the stages. The collected samples were analyzed.
(§1) Aerosol particle size was determined using the 10-stage MOUDI operated at 30 L/min. […] For the USP throat, 5 mL of sample solvent was added and shaken thoroughly. Wall losses were assessed by washing the MOUDI walls with a Kimwipe dipped in sample solvent. The same sample solvent was used to wash the walls of all the stages. The collected samples were analyzed using the assay method.
Aerosol particle size was determined using the 10-stage MOUDI operated at 30 L/min. For MOUDI runs 1-4, the sample foils were placed in beakers, 5 mL of sample solvent was added, and the beakers swirled thoroughly. For the USP throat, 5 mL of sample solvent was added and shaken thoroughly. Wall losses were assessed by washing the MOUDI walls with a Kimwipe dipped in sample solvent. The same 5 mL of sample solvent was used to wash the walls of all the stages. The collected samples were analyzed using the assay method. For MOUDI runs 5-9, the procedure was the same as above except distilled deionized water was used in place of the sample solvent. This was done to allow for simultaneous PG particle size analysis. Two actuations were used for all MOUDI runs with the exception of MOUDI runs 1 and 7.
as §1, with “10” for “5”
as §1

[3] = 2 % in PG
Method: (§2) Buspirone was dissolved in acidic and basic solutions and heated to 50 degrees Celsius for 1 hour to promote acid and base catalyzed hydrolysis. Buspirone was also subjected to peroxide with heating to 50 degrees Celsius for 1 hour to promote oxidation. As a final stability check, solid buspirone was subjected to heating with a differential scanning calorimeter. Conditions were optimized to produce thermal degradation products by heating to 350 degrees Celsius.
(§3) Dose capture determinations were conducted (Table 1). For dose capture runs 1-6, the device was actuated once, the aerosol collected in acidified water, diluted to 40 mL. Runs 7-12 were performed as above, except distilled de-ionized water was used instead of acidified water. For runs 13-33, the device was actuated 4 times, the aerosol was collected in 8 mL of sample solvent, and analyzed for buspirone and degradation products using the “stability indicating” assay. Intact buspirone was calculated. The extent of degradation was evaluated by assuming that the degradation products had similar extinction coefficients as the parent at the wavelength of interest.
(§4) After evaluation of the data, it was determined that buspirone should be thermally stressed with a DSC to produce a degradation profile thought to be more representative of buspirone degradation after aerosolization via the CAG. In doing so, thermal degradation products were produced under the conditions stated above. This provided an indication of retention times for potential degradation products of buspirone after aerosolization using the CAG.
(§5) Buprenorphine was subjected to heating with a differential scanning calorimeter.
(§6) Dose capture determinations were conducted.
(§7) Conditions were optimized to produce thermal degradation products by heating to 350 degrees Celsius.
(§8) Dose capture determinations were conducted (Table 6). For dose capture runs 1-3, the device was actuated once, the aerosol collected in 10 mL of sample solvent and analyzed using the “stability indicating” method. Runs 4-9 were performed as above except the device was actuated twice and collected in 10 mL of sample solvent. […] The extent of degradation was evaluated by assuming that the degradation products had similar extinction coefficients as the parent at the wavelength of interest.
(§9) Thermal degradation products were produced under the conditions stated above.
(§10) Conditions were optimized to produce thermal degradation products by heating to 300 degrees Celsius.
(§11) Dose capture determinations were conducted. […] The extent of degradation was evaluated by assuming that the degradation products had similar extinction coefficients as the parent at the wavelength of interest.

[4] = 5 mg/sec
Method: Sham determinations were performed for each set of experiments to determine an “expected” amount of active per capillary aerosol generator (CAG) activation. This was performed by running the equipment at a target resistance of 0.2 ohms, which pumped out the solution of buspirone in PG as a liquid instead of an aerosol. The result was collected on a Kimwipe which was placed into sample solvent and sonicated. This process was performed in triplicate. Two solution concentrations of about 0.5% and about 2% of buspirone in PG were prepared.
as §3
The result was collected on a Kimwipe, placed into sample solvent and sonicated. This process was performed in triplicate and was analyzed with other analytical samples.
as §6
Sham determinations were performed for each set of experiments to determine an “expected” amount of active per CAG activation. […] This was collected on a Kimwipe which was placed into sample solvent and sonicated. The process was performed in triplicate and was analyzed with other analytical samples.
as §8
Sham determinations were performed for each set of experiments to determine an “expected” amount of active per CAG activation. […] This was collected on a Kimwipe which was placed into sample solvent and sonicated. This process was performed in triplicate and was analyzed with other analytical samples.
as §11
Sham determinations were performed for each set of experiments to determine an “expected” amount of active per CAG activation. This was performed by running the equipment at a target resistance of 0.2 ohms. […] This was collected on a Kimwipe which was placed into sample solvent and sonicated. This process was performed in triplicate and was analyzed with other analytical samples.

[5] = Degradation determination after aerosolization (stability indicating assay); details: zolpidem 0.2% in PG, target resistance 0.600 ohms, runs 5-9
Method: as §2, §3, §4, §5, §6, §7, §8, §9, §10, §11

[6] = buspirone 0.5% in PG, target resistance 0.600 ohms
[7] = buspirone 0.5% in PG, target resistance 0.610 ohms, monohydrochloride
[8] = buspirone 2.0% in PG, target resistance 0.590 ohms
[9] = buspirone 2.0% in PG, target resistance 0.595 ohms
[10] = buspirone 2.0% in PG, target resistance 0.600 ohms, monohydrochloride
[11] = buspirone 2.0% in PG, target resistance 0.605 ohms, runs 11-15, listed as buspirone, monohydrochloride
[12] = buspirone 2.0% in PG, target resistance 0.605 ohms, runs 11-15, monohydrochloride
[13] = buspirone 2.0% in PG, target resistance 0.610 ohms
[14] = cyclobenzaprine 2.0% in PG, target resistance 0.595 ohms, 1 actuation
[15] = triazolam 0.1% in PG, target resistance 0.590 ohms
[16] = triazolam 0.1% in PG, target resistance 0.595 ohms
[17] = triazolam 0.1% in PG, target resistance 0.600 ohms
[18] = triazolam 0.1% in PG, target resistance 0.605 ohms, runs 5-9
[19] = zolpidem 0.2% in PG, target resistance 0.590 ohms, 1 actuation
[20] = zolpidem 0.2% in PG, target resistance 0.600 ohms, 1 actuation

## Cl.O=C1CC2(CCCC2)CC(=O)N1CCCCN1CCN(c2ncccn2)CC1 [Buspirone, 8-[4-[4-(2-pyrimidinyl)-1-piperazinyl]butyl]-8-azaspiro[4,5]decane-7,9-dione monohydrochloride]
[1]
  Avg. Emitted Dose per Actuation: 1010.44 µg
  Avg. FPF: 91.60 % of Emitted
[2]; [6]
  MMAD: 0.31 microns
  Material Balance: 100%
  Throat Deposition: 7%
  Wall Losses: 2%
[2]; buspirone 0.5% in PG, target resistance 0.610 ohms
  Wall Losses: 4%
[2]; [7]
  MMAD: 0.30 microns and 0.47 microns and 0.32 microns and 0.29 microns
  Throat Deposition: 10% and 3% and 6% and 4%
[2]; buspirone 2.0% in PG, energies approximately 77 J, runs 8 and 10
  recovered buspirone found on the throat: greater than 40%
[2]; [8]
  MMAD: 0.54 microns
  Material Balance: 11%
  Throat Deposition: 44%
  Wall Losses: 6%
[2]; [9]
  MMAD: 0.46 microns
  Material Balance: 91%
  Throat Deposition: 44%
  Wall Losses: 1%
[2]; [10]
  MMAD: 0.30 microns and 0.48 microns
  Material Balance: 100% and 98%
  Wall Losses: 2% and 4%
[2]; [11]
  MMAD: approximately 0.30 microns
  Material Balance: exceeded 100%
  Throat Deposition: less than 5%
[2]; [12]
  MMAD: 0.31 microns and 0.30 microns and 0.29 microns and 0.32 microns
  Material Balance: 105% and 108% and 102% and 107% and 111%
  Throat Deposition: 4% and 1% and 3% and 2%
  Wall Losses: 4% and 3% and 9%
[2]; [13]
  MMAD: 0.30 microns
  Material Balance: 98%
  Throat Deposition: 14%
  Wall Losses: 1%
[3]
  average degradation of the active: 0.25%
  major degradation peak, share of degradation observed: approximately 0.09%
  other 8 degradation peaks, each: approximately 0.02%
[4]; buspirone 2.0% in PG, target resistance 0.595 ohms, runs 13-15, mean
  Dose Capture: 102^1%
[4]; buspirone 2.0% in PG, target resistance 0.600 ohms, runs 24-28, mean
  Dose Capture: 105^3%
[4]; buspirone 2.0% in PG, target resistance 0.605 ohms, about 90 J, runs 29-33, mean, listed as buspirone, monohydrochloride
  Dose Capture: 104%
[4]; buspirone 2.0% in PG, target resistance 0.605 ohms, about 90 J, runs 29-33, mean, monohydrochloride
  Dose Capture: 104^3%
[4]; buspirone 2.0% in PG, target resistance 5.90 ohms, runs 7-9, mean of 3
  Dose Capture: 9^1%

## CN(C)CCC=C1c2ccccc2C=Cc2ccccc21 [Cyclobenzaprine, 3-(5H-Dibenzo[a,d]cyclohepten-5-ylidene)-N,N-dimethyl-1-propanamine]
[1]
  Avg. Emitted Dose per Actuation: 836.16 µg
  Avg. FPF: 94.35 % of Emitted
[2]; [14]
  MMAD: 0.330 microns and 0.329 microns and 0.343 microns and 0.333 microns and 0.336 microns and 0.256^2 microns
  Material Balance: 92.04% and 91.03% and 93.48% and 99.10% and 93.99% and 61.98^2%
  Throat Depositions: 3.45% and 3.39% and 5.55% and 2.59% and 3.09% and 4.89^2%
  Wall Losses: 0.81% and 1.12% and 2.33% and 1.98% and 2.26% and 1.99^2%
[2]; cyclobenzaprine 2.0% in PG, target resistance 0.595 ohms, 1 actuation, listed as cyclobenzaprine
  Throat Depositions: less than 4%
[2]; cyclobenzaprine 2.0% in PG, target resistance 0.595 ohms, approximately 71 J, runs 1-6 excluding run 3
  average MMAD: approximately 0.33 microns
[3]
  average degradation: less than 0.3%
[4]; cyclobenzaprine 2.0% in PG, target resistance 0.595 ohms, about 73 J, 1 actuation, listed as cyclobenzaprine
  Dose Capture: > 95%
[4]; cyclobenzaprine 2.0% in PG, target resistance 0.610 ohms, 1 actuation
  Dose Capture: 109.93%

## Cc1nnc2n1-c1ccc(Cl)cc1C(c1ccccc1Cl)=NC2 [Triazolam, 8-chloro-6-(2-chlorophenyl)-1-methyl-4H-[1,2,4]triazolo[4,3-a][1,4]benzodiazepine]
[1]
  Avg. Emitted Dose per Actuation: 46.46 µg
  Avg. FPF: 86.16 % of Emitted
[2]; [15]
  MMAD: 0.847 microns and 0.642^3 microns
  Material Balance: 74.08% and 108.22^3%
  Wall Losses: 15.51^3%
[2]; triazolam 0.1% in PG, target resistance 0.590 ohms, approximately 70 J, runs 1 and 2
  Throat Deposition: 33.14% and 39.28^3%
[2]; triazolam 0.1% in PG, target resistance 0.590 ohms, approximately 70 J, runs 1 and 2, listed as triazolam
  Throat Deposition: greater than 30%
[2]; [16]
  MMAD: 0.414^3 microns
  Material Balance: 98.50^3%
  Throat Deposition: 3.66^3%
  Wall Losses: 6.69^3%
[2]; [17]
  MMAD: 0.378^3 microns
  Material Balance: 104.22^3%
  Throat Deposition: 2.96^3%
  Wall Losses: 11.04^3%
[2]; [18]
  MMAD: 0.511^3 microns and 0.431^3 microns and 0.483 microns and 0.444^3 microns and 0.446^3 microns
  Material Balance: 102.10^3% and 96.32^3% and 107.02% and 91.60^3% and 101.09^3%
  Throat Deposition: 2.43^3% and 1.35^3% and 2.87% and 2.47^3% and 1.97^3%
[2]; triazolam 0.1% in PG, target resistance 0.605 ohms, runs 5-9, listed as triazolam
  Throat Deposition: less than 3%
[2]; triazolam 0.1% in PG, target resistance 0.605 ohms, approximately 90 J, runs 5-9
  average MMAD: approximately 0.46 microns
[4]; triazolam 0.1% in PG, target resistance 0.605 ohms, about 90 J, runs 10-14, mean of 15
  Dose Capture: 90^2%
[4]; triazolam 0.1% in PG, target resistance 0.605 ohms, about 90 J, runs 10-14, mean of 15, listed as triazolam
  Dose Capture: 90%
[4]; triazolam 0.1% in PG, target resistance 0.610 ohms
  Dose Capture: 86%

## Cc1ccc(-c2nc3ccc(C)cn3c2CC(=O)N(C)C)cc1 [Zolpidem, N,N,6-Trimethyl-2-(4-methylphenyl)-imidazo[1,2-a]pyridine-3-acetamide]
[5]
  Percent Degradation: 0.26% and 0.02% and 0.00% and 0.03% and 0.16%
  average degradation: less than 0.1%
[1]
  Avg. Emitted Dose per Actuation: 92.55 µg
  Avg. FPF: 93.25 % of Emitted
[2]; [19]
  MMAD: 0.464 microns
  Material Balance: 64.51%
  Throat Deposition: 5.36%
  Wall Losses: 1.68%
[2]; [20]
  MMAD: 0.481 microns and 0.459 microns and 0.420 microns and 0.421 microns and 0.404 microns and 0.431 microns
  Material Balance: 100.06% and 90.77% and 97.74% and 95.83% and 101.56% and 93.04%
  Throat Deposition: 3.97% and 0.12% and 0.62% and 1.27% and 0.21% and 1.95%
  Wall Losses: 6.18% and 2.67% and 3.55% and 3.85% and 0.90% and 1.35%
[2]; zolpidem 0.2% in PG, target resistance 0.600 ohms, approximately 75 J, runs 5-8
  average MMAD: approximately 0.45 microns
